Source: publication PMC10687071 (The Journal of Biological Chemistry, 2023)

How the values were obtained:
[1] = system: EAG1 channels; conditions: HEK293, whole-cell configuration; read-out: IC50 for EAG1 currents recorded from HEK293 in the whole-cell configuration; cited from earlier work
[2] = molecular target: T1, F130G mutant EAG1 channels (Mus musculus, UniProt Q60603, F130G); assay: TEVC recording, imipramine inhibition, F130G mutant; assay type: cell-based; conditions: F130G mutant EAG1 channel, +50 mV
T1 construct: expressed in transfected cells; host or cells: Xenopus laevis oocytes injected with cRNA
T1 sequence (Q60603 1-989 F130G): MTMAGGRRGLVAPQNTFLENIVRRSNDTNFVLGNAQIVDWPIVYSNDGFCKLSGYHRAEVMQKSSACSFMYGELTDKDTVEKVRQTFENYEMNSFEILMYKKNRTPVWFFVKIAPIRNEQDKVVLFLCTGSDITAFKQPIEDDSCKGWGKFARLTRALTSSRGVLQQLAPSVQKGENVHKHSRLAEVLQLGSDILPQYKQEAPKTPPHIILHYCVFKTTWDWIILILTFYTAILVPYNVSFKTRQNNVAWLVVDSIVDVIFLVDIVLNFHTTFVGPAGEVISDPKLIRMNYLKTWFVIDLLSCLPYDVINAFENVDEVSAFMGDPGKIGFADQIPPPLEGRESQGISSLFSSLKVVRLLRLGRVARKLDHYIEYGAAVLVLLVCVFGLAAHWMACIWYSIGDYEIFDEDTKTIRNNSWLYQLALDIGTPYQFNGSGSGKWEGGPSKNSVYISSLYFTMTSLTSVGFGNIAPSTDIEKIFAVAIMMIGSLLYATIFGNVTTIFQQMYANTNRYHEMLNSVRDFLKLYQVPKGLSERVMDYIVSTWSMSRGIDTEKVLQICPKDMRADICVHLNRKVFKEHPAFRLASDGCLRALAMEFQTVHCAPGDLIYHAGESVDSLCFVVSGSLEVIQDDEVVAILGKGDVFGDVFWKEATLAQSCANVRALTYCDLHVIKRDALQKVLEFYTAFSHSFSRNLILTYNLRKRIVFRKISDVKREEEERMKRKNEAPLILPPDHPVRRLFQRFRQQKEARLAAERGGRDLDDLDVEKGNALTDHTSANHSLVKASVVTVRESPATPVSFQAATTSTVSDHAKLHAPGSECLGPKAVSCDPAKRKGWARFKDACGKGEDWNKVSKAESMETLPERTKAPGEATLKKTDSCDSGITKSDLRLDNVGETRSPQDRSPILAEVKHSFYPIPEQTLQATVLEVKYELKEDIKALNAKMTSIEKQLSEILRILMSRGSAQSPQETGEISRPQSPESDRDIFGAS
Source text: The cDNA encoding wild-type (WT) mouse EAG1 channels in pGH19 vector was kindly provided by G. Robertson (University of Wisconsin-Madison, Madison, WI). The mutant ΔPAS EAG1 channel in pGH19 with the deletion of the PAS domain residues 2 to 130 was generated by Bio Basic Inc and verified by DNA sequencing (Genewiz). Mutant EAG1 channels with single amino acid substitutions were generated by Genewiz and verified by DNA sequencing. cRNA was transcribed using the T7 mMessage mMachine kit (Thermo Fisher Scientific). Defolliculated Xenopus laevis oocytes were purchased from Ecocyte Bioscience or Xenopus1 and injected with the cRNA using a Nanoinject II oocyte injector (Drummond).
For EAG1 current recordings, oocytes were placed into a handmade chamber containing a bath solution for the current recording. The currents were recorded using a TEVC technique with OC-725C amplifier (Warner Instruments) and pClamp11 software (Molecular Devices). The signals were digitized using Digidata 1550 (Molecular Devices). Patch pipettes were pulled from borosilicate glass and had resistances of 0.7 to 1.5 MΩ. The recording (bath) solution contained 96 mM NaCl, 4 mM KCl, 0.1 mM CaCl2, 1.8 mM MgCl2, and 5 mM HEPES, pH 7.5. The pipette solution contained 3 M KCl. […]

SMILES: CN(C)CCCN1c2ccccc2CCc2ccccc21 [imipramine]
- IC50 [1]: ~2 µM
- IC50 [2]: 52.8 ± 5 µM
